Test results taken from publication PMC10141580, “Cyclic Dichalcogenides Extend the Reach of Bioreductive Prodrugs to Harness Thiol/Disulfide Oxidoreductases: Applications to seco-Duocarmycins Targeting the Thioredoxin System” (ACS Central Science, 2023).
“And” between values parts separate entries of the source, which are not always exact repeats. Equal entries are not always repeated. Where two headings read alike, the source gives them in different places.

Test system: panel of 140 standard cancer cell lines
Experiment: ProliFiler-140 cancer cell line screen (CellTiterGlo, 72 h)
Format: cell-based
Protocol: Incubations were performed for 72 h before automated viability readout with CellTiterGlo (Figure 8).
End of Figure S11 (part 5 of 5): ProliFiler-140 cancer cell line screening for cytotoxicity of the prodrugs.
8-data-point dose response curves from CellTiter-Glo® viability readout.
ProliFiler-140 cell line panel part V

Compound: COc1cc2cc(C(=O)N3C[C@@H](CCl)c4c3cc(OC(=O)N3CCN(C(=O)CCC(=O)N5CCN(C)CC5)[C@H]5CSSC[C@H]53)c3ccccc43)[nH]c2c(OC)c1OC [P-SS66C-CBI-TMI]
- Reductive Activation Index (KG-1 a (Blood)): 5.16
- Reductive Activation Index (Kato III (Stomach)): 7.4
- Reductive Activation Index (LN229 (Brain)): 5.44
- IC50 (LOU-NH91, read-out: IC50 [M] (ProliFiler-140), LOU-NH91 (Lung)): 3.5e-08 M
- Reductive Activation Index (LnCap (Prostate)): 33
- Reductive Activation Index (M07e (Blood)): 4.26
- IC50 (M-07e, read-out: IC50 [M] (ProliFiler-140), M07e (Blood)): 3.25e-08 M
- Reductive Activation Index (MCAS (Ovary)): 5.9 and 5.91
- Reductive Activation Index (MDA MB 231 (Breast)): 5.44
- Reductive Activation Index (MDA MB 435 (Skin)): 8.6
- IC50 (MDA MB 435 (Skin); read-out: IC50 [M] (ProliFiler-140)): 1.26e-07 M
- Reductive Activation Index (MKN-1 (Stomach)): 11.1
- Reductive Activation Index (MKN-45 (Stomach)): 5.93
- Reductive Activation Index (Mia PaCA 2 (Pancreas)): 4.38
- Reductive Activation Index (NALM-6 (Blood)): 22.62 and 23
- Reductive Activation Index (NCI-H82 (Lung)): 8.5
- Reductive Activation Index (NCI-H441 (Lung)): 5.81
- Reductive Activation Index (NCI-H838 (Lung)): 10
- Reductive Activation Index (NCI-H1563 (Lung)): 15
- Reductive Activation Index (NCI-H1573 (Lung)): 12
- Reductive Activation Index (NCI-H1703 (Lung)): 16
- Reductive Activation Index (NCI-H1838 (Lung)): 11
- IC50 (NCI-H2110, read-out: IC50 [M] (ProliFiler-140), NCI-H2110 (Lung)): 1.8e-08 M
- Reductive Activation Index (NCI-N87 (Stomach)): 15
- Reductive Activation Index (OCI-AML5 (Blood)): 5.7 and 5.67
- Reductive Activation Index (OCI-LY19 (Blood)): 5.41
- Reductive Activation Index (OPM-2 (Blood)): 25.37
- Reductive Activation Index (OV56 (Ovary)): 2.79
- IC50 (OV56, read-out: IC50 [M] (ProliFiler-140), OV56 (Ovary)): 7.25e-08 M
- Reductive Activation Index (OVCAR-3 (Ovary)): 13
- Reductive Activation Index (OVK18 (Ovary)): 4.38
- IC50 (OVK18, read-out: IC50 [M] (ProliFiler-140), OVK18 (Ovary)): 4.57e-08 M
- Reductive Activation Index (PANC-1 (Pancreas)): 6.9
- Reductive Activation Index (RERF-LC-Ad2 (Lung)): 5.5 and 5.54
- IC50 (RERF-LC-Ad2, read-out: IC50 [M] (ProliFiler-140), RERF-LC-Ad2 (Lung)): 1.4e-07 M
- Reductive Activation Index (RL95-2 (Endometrium)): 5.93
- Reductive Activation Index (SCLC-21H (Lung)): 6.16
- Reductive Activation Index (SJSA-1 (Bone)): 3.87
- Reductive Activation Index (SK-MEL-3 (Skin)): 6.6
- Reductive Activation Index (SK-N-FI (Brain)): 4.91
- Reductive Activation Index (SK-N-SH (Brain)): 6.5
- Reductive Activation Index (SNU840 (Ovary)): 1.11
- Reductive Activation Index (SNU-216 (Stomach)): 19.98 and 20
- IC50 (SNU-216, read-out: IC50 [M] (ProliFiler-140), SNU-216 (Stomach)): 9.22e-08 M
- IC50 (SNU-840, read-out: IC50 [M] (ProliFiler-140), SNU840 (Ovary)): 6.29e-08 M
- Reductive Activation Index (SU-DHL-5 (Blood)): 19 and 19.50
- Reductive Activation Index (SW480 (Colon)): 6.01
- Reductive Activation Index (SW620 (Colon)): 4.55
- Reductive Activation Index (SW948 (Colon)): 4.75
- Reductive Activation Index (Saos-2 EC (Bone)): 3.52
- Reductive Activation Index (SiHa (Ovary)): 5.41
- Reductive Activation Index (T84 (Colon)): 5.69 and 5.7
- Reductive Activation Index (T-47D (Breast)): 11
- Reductive Activation Index (U2OS (Bone)): 4.10
- Reductive Activation Index (U87MG (Brain)): 8.0
- Reductive Activation Index (U118MG (Brain)): 2.11
- Reductive Activation Index (U251MG (Brain)): 17
- Reductive Activation Index (U-937 (Blood)): 6.40
- Reductive Activation Index (ZR-75-1 (Breast)): 4.62 and 4.6
- IC50 (read-out: IC50 [M] (ProliFiler-140), BEN (Lung)): 5.3e-08 M
- IC50 (read-out: IC50 [M] (ProliFiler-140), H4 (Brain)): 1.39e-08 M
- IC50 (read-out: IC50 [M] (ProliFiler-140), Hep3B2.1-7 (Liver)): 1.7e-07 M
- IC50 (read-out: IC50 [M] (ProliFiler-140), J82 (Bladder)): 9.55e-08 M
- IC50 (read-out: IC50 [M] (ProliFiler-140), KG-1 (Blood)): 1.92e-07 M
- IC50 (read-out: IC50 [M] (ProliFiler-140), LP-1 (Blood)): 1e-07 M
- IC50 (read-out: IC50 [M] (ProliFiler-140), MCAS (Ovary)): 1.4e-07 M
- IC50 (read-out: IC50 [M] (ProliFiler-140), PC3 (Prostate)): 4.01e-08 M
- IC50 (read-out: IC50 [M] (ProliFiler-140), PC-9 (Lung)): 1.4e-08 M
- IC50 (read-out: IC50 [M] (ProliFiler-140), RERF-LC-MS (Lung)): 3.07e-08 M
- IC50 (read-out: IC50 [M] (ProliFiler-140), RKO (Colon)): 2.13e-08 M
- IC50 (read-out: IC50 [M] (ProliFiler-140), SCH (Stomach)): 1.5e-08 M
- IC50 (read-out: IC50 [M] (ProliFiler-140), T84 (Colon)): 1.6e-07 M
- IC50 (read-out: IC50 [M] (ProliFiler-140); 786-O (Kidney)): 2.9e-08 M
- IC50 (read-out: IC50 [M] (ProliFiler-140); A375 (Skin)): 5.5e-08 M
- IC50 (read-out: IC50 [M] (ProliFiler-140); A427 (Lung)): 4.42e-08 M
- IC50 (read-out: IC50 [M] (ProliFiler-140); A431 (Skin)): 2e-08 M
- IC50 (read-out: IC50 [M] (ProliFiler-140); A498 (Kidney)): 9.4e-08 M
- IC50 (read-out: IC50 [M] (ProliFiler-140); A549 (Lung)): 3.03e-08 M
- IC50 (read-out: IC50 [M] (ProliFiler-140); A2058 (Skin)): 1.09e-08 M
- IC50 (read-out: IC50 [M] (ProliFiler-140); A2780 (Ovary)): 8.13e-09 M
- IC50 (read-out: IC50 [M] (ProliFiler-140); AsPC-1 (Pancreas)): 2.62e-07 M
- IC50 (read-out: IC50 [M] (ProliFiler-140); BEN (Lung)): 5.35e-08 M
- IC50 (read-out: IC50 [M] (ProliFiler-140); BT-20 (Breast)): 1.22e-07 M
